Series [1] deals with HDACs. In words: In vitro inhibition of HDACs (HDAC Inhibitor Drug Screening Kit, Biovision K340-100). Particulars: for inhibitory activity on HDACs compared with MS-275: concentrations of 2 mM, 200 μM, and 40 μM. Format: biochemical. As to the method:
The in vitro inhibitory activities of the compounds towards HDACs were tested according to the instructions in the HDAC Inhibitor Drug Screening Kit (Biovision/Catalog #K340-100).
(1) The compounds to be tested were each individually prepared as 2 mM, 200 μM and 40 μM solutions and their inhibitory activities at these concentrations were tested.

The subject of series [2] is Hut78 T lymphocytic leukemia cells. In words: In vitro anti-proliferative effect, CCK-8 method, Hut78. Format: cell-based. As to conditions: Homo sapiens, HuT78, read-out: Hut-78 (inhibition %). A digest of the protocol:
(§1)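 Percent growth inhibition, measured with CCK-8, in Hut78 and K562 leukemia cells at two compound concentrations, 10 μM and 100 μM.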
(In general: Formazan colour is commonly taken as a measure of viable cells.)

Series [3] has as its system PANC-1 human pancreatic cancer cells. In words: In vitro anti-proliferative effect, CCK-8 method, PANC-1. The series is classed as cell-based. Particulars: Homo sapiens, PANC-1. The method, boiled down: (§2)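 Percent inhibition was determined via CCK-8 after treatment at two fixed doses (100 μM, 10 μM).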
The subject of series [4] is Jurkat E6-1 human T-cell lymphoma. Briefly: In vitro anti-proliferative effect, CCK-8 method, Jurkat E6-1. As to conditions: Homo sapiens, Jurkat E6.1. Format: cell-based. A digest of the protocol: as §2
The subject of series [5] is K562 human chronic myelogenous leukemia cells. Briefly: In vitro anti-proliferative effect, CCK-8 method, K562. The series is classed as cell-based. As to conditions: Homo sapiens, K562. A digest of the protocol: as §1
In series [6] the test system is A549 human lung cancer cells. Briefly: In vitro anti-proliferative effect, CCK-8 method, A549. The series is classed as cell-based. As to conditions: Homo sapiens, A549. A digest of the protocol:
as §2

The test system of series [7] is MDA-MB-435s human breast cancer cells. In words: In vitro anti-proliferative effect, CCK-8 method, MDA-MB-435s. Particulars: Homo sapiens, MDA-MB-435S. The series is classed as cell-based. A digest of the protocol: as §2
The subject of series [8] is Hep3B2.1-7 human liver cancer cells. Briefly: In vitro anti-proliferative effect, CCK-8 method, Hep3B. The series is classed as cell-based. As to conditions: Homo sapiens, Hep3B cell strain, CCK-8 method; for inhibition at 10 µM: compound at 10 μM; for inhibition at 100 µM: compound at 100 μM. The method, boiled down: as §2
The subject of series [9] is PC-3 human prostate cancer. Briefly: In vitro anti-proliferative effect, CCK-8 method, PC-3. Format: cell-based. As to conditions: Homo sapiens, PC-3 cell strain, CCK-8 method; for inhibition at 10 µM: compound at 10 μM; for inhibition at 100 µM: compound at 100 μM. The method, boiled down:
as §2

Series [10] relates to Colo320 human colorectal cancer cell lines. In words: In vitro anti-proliferative effect, CCK-8 method, Colo320. As to conditions: Homo sapiens, COLO 320, Colo320 cell strain, CCK-8 method; for inhibition at 10 µM: compound at 10 μM; for inhibition at 100 µM: compound at 100 μM. The series is classed as cell-based. The method, boiled down:
as §2

Series [11] is described as follows: Maximum tolerance dose through intragastrical administration. The series is classed as in vivo. As to conditions: mice, administrated intragastrically. As to the method:
Forty ICR mice, half female and half male, weighing […] were divided into four groups, 10 mice in each group. After the mice were fasted for 6 h, the compound to be tested was administrated intragastrically to each group at a volume of 0.3 ml/10 g by using a sterile plastic syringe. General physical signs and the deaths of the animals were record at 1, 2 and 4 h after the administration. The animals were then observed continuously for 14 days and their weights, physical signs and deaths were observed and recorded every day. Dead animals were dissected to see if there was any visible pathological change in the animal's viscera and pathological examination was performed on suspicious tissues and organs. A part of the experimental results is as follows.

Series [12] deals with HDAC1 (Homo sapiens (Human), UniProt Q13547). Briefly: In vitro inhibition of subtype HDAC1 (HDAC1 Inhibitor Drug Screening Kit, Biovision). As to conditions: read-out: % Inhibition towards HDAC1. Format: biochemical. As for the experimental part:
The in vitro inhibitory activities of the compounds towards the subtype HDAC1 were tested according to the instructions in the HDAC1 Inhibitor Drug Screening Kit (Biovision).
(1) The compounds to be tested were each individually prepared as 10 μM and 1 μM solutions and their inhibitory activities at these concentrations were tested.
Each dilution sample was placed in two wells and the enzyme inhibition IC50 of the compound was tested.

What is called inhibition is the relative decrease from the control value, in per cent. In general, IC50 refers to the midpoint of a concentration-inhibition curve.

HDAC1, sequence (Q13547 whole entry): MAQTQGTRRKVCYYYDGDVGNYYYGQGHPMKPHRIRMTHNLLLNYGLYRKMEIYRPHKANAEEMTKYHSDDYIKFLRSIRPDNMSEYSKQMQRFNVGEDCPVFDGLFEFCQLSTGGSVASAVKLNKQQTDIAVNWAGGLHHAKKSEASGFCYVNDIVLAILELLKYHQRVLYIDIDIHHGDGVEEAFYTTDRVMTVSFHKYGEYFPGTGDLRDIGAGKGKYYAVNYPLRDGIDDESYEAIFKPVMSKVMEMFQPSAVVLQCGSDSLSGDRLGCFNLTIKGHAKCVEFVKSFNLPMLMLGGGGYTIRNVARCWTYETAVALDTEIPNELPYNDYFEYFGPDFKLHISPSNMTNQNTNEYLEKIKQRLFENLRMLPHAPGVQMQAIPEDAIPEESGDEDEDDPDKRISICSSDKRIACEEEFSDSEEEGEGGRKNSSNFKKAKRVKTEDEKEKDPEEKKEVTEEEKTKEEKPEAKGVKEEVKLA

On to `Nc1cnccc1NC(=O)c1ccc(Nc2ncnc3ccccc23)cc1` [Compound V-2], for which the entries for the “Inhibition percentage (%) towards HDACs” value in series [1] (40 μM), in series [1] (200 μM) and in series [1] (2 mM) were 17.6%, 28.0% and 77.1%, respectively. Also, the inhibition at 10 µM in series [2] came to 63.4%; in series [3], 20.7%; in [4], 58.5%; in [5] it was 21%; in series [6] it was 65.6%; in series [7] it was 35.8%. The inhibition at 10 µM in series [8] worked out at 31.2%; in [9] it was 90.3%; in series [10] it was 39.6%. In addition, the inhibition at 100 µM in [2] amounted to 82.8%; in series [3], 74.1%; in [4], 85.9%; in series [5] it was 64.4%; in [6], 84.8%; in series [7], 86.9%. The inhibition at 100 µM in series [8] amounted to 53.6%; in series [9], 92.4%; in [10] it was 92.9%. The maximum tolerance dose entry in [11] is given as “over 2000 mg/kg”.

For the molecule `COc1cc2ncnc(Nc3ccc(C(=O)Nc4ccncc4N)cc3)c2cc1OC` [Compound V-4], in [1], inhibition was half-maximal at 3.29 µM (IC50). Further, in series [1], the “inhibitory activity according to in vitro IC50 value against HDACs compared with MS-275” value was “better inhibitory activities than MS-275”. Besides, the “Inhibition percentage (%) towards HDACs” value in series [1] (40 μM) was found to be 36.3%; in series [1] (200 μM), 70.3%; in series [1] (2 mM), 85.3%. Also, the “inhibitory activity on HDACs compared with MS-275” value in series [1] was “significantly stronger inhibitory activities than MS-275”. Further, the inhibition at 10 µM was 66.4% in [2]; 14.4% in series [3]; 5.4% in series [4]; -1.3% in series [5]; -43.9% in [6]; -20.7% in series [7]. In addition, the inhibition at 10 µM in series [8] was -10.2%; in [9], 5.2%; in [10], 7.1%. In addition, the inhibition at 100 µM was 95.8% in [2]; 11.9% in [3]; 23.7% in series [4]; 38.1% in series [5]; -19.4% in series [6]; -10.4% in [7]. Also, the inhibition at 100 µM in series [8] is -12.1%; in series [9] it was 15.9%; in series [10] it was 16.8%. Also, the maximum tolerance dose result in series [11] is listed as “over 5000 mg/kg”.

Regarding `COc1ccc2ncnc(Nc3ccc(C(=O)Nc4ccccc4N)cc3)c2c1` [Compound V-5, N-(2-aminophenyl)-4-(6-methoxyquinazoline-4-amino)benzamide], the half-maximal inhibitory concentration (IC50) in series [1] was determined as 7.79 µM. Also, the “Inhibition percentage (%) towards HDACs” value was 2.8% in series [1] (40 μM), 16.8% in series [1] (200 μM) and 36.7% in [1] (2 mM). Moreover, the inhibition at 10 µM in series [2] was 15%; in series [3], 10.5%; in series [4] it was 62.2%; in series [5] it was 49.4%; in series [6], -44.3%; in series [7], -14.3%. In addition, the values for the inhibition at 10 µM in series [8], in [9] and in series [10] were 7.3%, 0% and 13%, respectively. In addition, the inhibition at 100 µM in series [2] is 43.9%; in series [3], 45.9%; in series [4], 87.9%; in series [5], 83.2%; in series [6], -13.1%; in [7], 84.1%. In addition, the inhibition at 100 µM in series [8] worked out at 66.6%; in series [9], 66.7%; in series [10], 45.3%. In series [11], the maximum tolerance dose result is reported as “over 2000 mg/kg”.

In [1], `COc1ccc2ncnc(Nc3ccc(C(=O)Nc4cc(F)ccc4N)cc3)c2c1` [Compound V-6, N-(2-amino-5-fluorophenyl)-4-(6-methoxyquinazoline-4-amino)benzamide] came in with an IC50 of 1.83 µM. Also, the “inhibitory activity according to in vitro IC50 value against HDACs compared with MS-275” value in [1] is reported as “better inhibitory activities than MS-275”. In addition, the “Inhibition percentage (%) towards HDACs” value in series [1] (40 μM) worked out at 34.5%; in [1] (200 μM) it was 58.0%; in [1] (2 mM) it was 87.1%. Moreover, the “inhibitory activity on HDACs compared with MS-275” value in series [1] was “significantly stronger inhibitory activities than MS-275”. Further, the inhibition at 1 µM in series [12] (1 μM) was 6.47%. Moreover, the inhibition at 10 µM in [12] (10 μM) is 50.1%; in series [2], 15.5%; in series [3] it was 16.9%; in [4] it was 27.2%; in series [5] it was 53.6%; in series [6], -16.9%. The inhibition at 10 µM in [7] is 8%; in [8] it was -7%; in [9] it was 23.7%; in [10], -5.5%. Further, the inhibition at 100 µM in series [2] turned out to be 66.6%; in series [3], 19.7%; in series [4], 93.3%; in series [5], 87.2%; in [6], 45.7%; in series [7] it was 79.1%. For the same molecule, the inhibition at 100 µM in series [8] came to 57.5%; in [9] it was 56%; in [10], 59.2%. Further, the maximum tolerance dose result in series [11] was “over 5000 mg/kg”.

Consider `CC(=O)Nc1ccc2ncnc(NCc3ccc(C(=O)Nc4ccncc4N)cc3)c2c1` [Compound V-47], for which the inhibition at 10 µM stood at 9.9% in series [2]; 2.8% in series [3]; 59.4% in series [4]; 58% in series [5]; 9.4% in [6]; 21.8% in series [7]. For the same molecule, the inhibition at 10 µM in series [8] was 11.2%; in series [9] it was 7.2%; in series [10], 11%. For the same molecule, the inhibition at 100 µM in series [2] stood at 88.3%; in series [3], 43%; in series [4] it was 76.6%; in series [5], 62.1%; in [6], 8%; in series [7] it was 29.2%. Further, the inhibition at 100 µM was found to be 19.2% in [8], 12.8% in [9] and 6% in series [10]. The maximum tolerance dose entry in series [11] was “over 5000 mg/kg”.

For the origin of these results see US9034886B2, “4-aminoquinazoline derivatives and uses thereof” (Shanghai Institute of Pharmaceutical Industry, priority 2011, dated 2015).
